Assay results published in patent US20070249545A1, “DIHYDROFOLATE REDUCTASE INHIBITION BY EPIGALLOCATECHIN GALLATE COMPOUNDS” (priority 2004, published 2007).
Read-outs that look alike come from different tables or passages of the source.

What was measured:
bovine liver DHFR = molecular target: T1, bovine liver DHFR (Bos taurus, UniProt P00376); assay: Kinetic analysis of inhibition of bovine liver DHFR; type: biochemical
T1 construct: from tissue; host or cells: bovine liver
T1 sequence (P00376 1-187): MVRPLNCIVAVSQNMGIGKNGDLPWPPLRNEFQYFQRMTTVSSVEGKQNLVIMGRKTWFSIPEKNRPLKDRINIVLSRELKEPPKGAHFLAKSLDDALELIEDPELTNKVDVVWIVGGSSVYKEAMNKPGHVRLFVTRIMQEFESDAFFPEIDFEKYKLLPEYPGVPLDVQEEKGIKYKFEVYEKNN
Procedure: The activity of DHFR was determined at 25° C. by following the decrease of NADPH and DHF by absorbance measurements at 340 nm (ε=11,800 M^−1 cm^−1) by using a Perkin-Elmer Lambda-2 spectrophotometer with cuvettes of 1.0 cm light-path.
Experiments were performed at pH 7.58 and 25° C. in a buffer containing 2-(N-morpholino)ethanesulfonic acid (MES, 25 mM), sodium acetate (25 mM), tris(hydroxymethyl)aminomethane (Tris 50 mM), and NaCl (100 mM). To prevent the oxidation of catechins, the reaction mixture contained 1 mM ascorbic acid. The pH of the reaction was measured before and after of the experiment. The assays were started by the addition of enzyme. In the absence of the enzyme, the rate of change of absorbance was negligible. […]
Progress curves for the slow, tight-binding inhibition of bovine liver DHFR by EGCG were determined by continuously monitoring the disappearance of NADPH and DHF after initiation of the reaction by the addition of 3.3 nM enzyme. Reaction mixtures contained buffer, NADPH (100 μM), DHF (20 μM) and EGCG. Assuming that the concentration of free inhibitor is not substantially altered by the formation of an enzyme-NADPH-inhibitor complex, the progress curve for the inhibition in the presence of saturating NADPH is described by Eqn. (1): P=vst+(v0−vs)(1−exp(−k′t))/k′
where vs, v0 and k′ represent the steady-state velocity, initial velocity and apparent first-order rate constant, respectively.
The values of k′ at different EGCG concentrations were obtained by non-linear regression analysis of the progress curves. KI and KI* denote the respective dissociation constants for the initial and equilibrium binding of inhibitors to the enzyme-NADPH complex (FIG. 5).

[1] = molecular target: T2, recombinant human DHFR (rHDHFR) (Homo sapiens, UniProt P00374); assay: Inhibition of human DHFR by tea catechins; type: biochemical
T2 sequence (P00374 1-187): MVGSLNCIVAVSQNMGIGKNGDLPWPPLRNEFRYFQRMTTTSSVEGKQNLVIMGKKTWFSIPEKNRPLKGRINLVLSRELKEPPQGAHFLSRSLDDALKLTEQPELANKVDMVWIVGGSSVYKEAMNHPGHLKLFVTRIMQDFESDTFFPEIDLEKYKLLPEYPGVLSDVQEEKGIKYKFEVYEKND

S. maltophilia DHFR = S. maltophilia DHFR (Stenotrophomonas maltophilia, UniProt B2FPG1); type: biochemical; conditions: for Km: partially purified S. maltophilia DHFR, substrate
Procedure: For the DHFR extraction, S. maltophilia strain number 1, was inoculated onto fresh agar 24 h before using. Then, liquid medium was inoculated with the strain and these broth cultures were incubated at 37° C. and shaken at 100 cycles per min. Solid medium was MacConkey agar (Oxoid Ltd., Basingstoke, England). Liquid medium was Brilliant Green Bile 2% broth (Oxoid). Bacteria were grown to mid-log phase, harvested by centrifugation (1,600 rpm 30 min) and washed twice in 50 mM phosphate buffer (pH 7.0) followed each time by a new centrifugation (1,600 rpm 5 min). Cell lysis, centrifugation, and dialysis were carried out between 4 and 8° C. Fast protein liquid chromatography (FPLC) purification steps were performed at room temperature. […] After centrifugation at 36,000 rpm for 30 min to remove cell debris, the supernatant was filtered. This supernatant was brought to 40% saturation with solid ammonium sulfate under continuous stirring. After 1 h the solution was centrifuged at 35,000 rpm for 30 min and the pellet discarded. Additional ammonium sulfate was added to the clear supernatant to give 90% saturation and stirred for 1 h. After centrifugation, the precipitates were suspended in 2 ml of buffer B (10 mM potassium phosphate buffer, pH 7.4, 2 mM β-mercaptoethanol). Concentrated enzyme (2 ml samples) was loaded onto a […] gel-filtration column (Sephacryl S-75 16/60 Hi-Prep, Amersham Pharmacia Biotech Europe GmbH, Barcelona, Spain), equilibrated with buffer B and eluted at 0.5 ml/min. The active fractions were concentrated and stored at −80° C. until used.
Initial velocity inhibition experiments were carried out for the inhibition studies of S. maltophilia with TMP and EGCG. One substrate (NADPH) was held constant at saturating concentration while the other substrate (DHF) and the inhibitor (TMP or EGCG) were varied. To prevent the oxidation of EGCG the reaction mixture contained 1 mM N-acetylcysteine (Sigma). For MTX inhibition the slow development of […] inhibition was determined by continuously monitoring the disappearance of NADPH and DHF after initiation of the reaction by the addition of DHFR. Reaction mixtures contained buffer, NADPH (100 μM), DHF (20 μM), and various concentrations of MTX. The extent of recovery of enzymatic activity following inhibition induced by preincubation with DHFR inhibitors was determined as follows. DHFR was preincubated for 30 min at 25° C. in the buffer mixture containing MTX, TMP or EGCG. An aliquot of the incubation mixture was then diluted 500-fold into a reaction mixture containing buffer mixture, NADPH (100 μM), and DHF (20 μM). Recovery of enzyme activity was followed by continuous monitoring at 340 nm.
Provided that the concentration of free inhibitor is not substantially altered by the formation of an enzyme-NADPH-inhibitor complex, the progress curve for the inhibition in the presence of saturating NADPH can be described by Eqn. 1 (as above): P=vst+(v0−vs)(1−exp(−kobst))/kobs • where vs, v0 and kobs represent the steady-state velocity, initial velocity and apparent first-order rate constant, respectively. The apparent first-order rate constant is related to the inhibitor concentration by Eqn. 2, where Ki denotes the dissociation constants for the initial binding of MTX to the enzyme-NADPH complex. [formula]

p16 = p16 methylation status in Caco-2 cells; conditions: EGCG 20 μM, 7-days treatment
L1210 cells = assay: EGCG cytotoxicity / growth of L1210 cells; type: cell-based, mouse; conditions: L1210; hypoxanthine-thymidine (HT) medium; EGCG 20 μM
Procedure: L1210 cells were plated at a density of 10,000 cells/ml in 96-well plates with a “standard folate” RPMI 1640 medium supplemented with 10% FCS. Reversion experiments were carried out in an HT medium and/or by adding 50 μM ascorbic acid (AA). Cell injury was evaluated by a calorimetric assay for mitochondrial function using the MTT test.^29
The effect of different EGCG concentrations on L1210 cell growth after 29 h of treatment at two different folic acid concentrations was determined. The cells were previously adapted over a period of 2-3 days to grow in folate-free RPMI 1640 medium supplemented with 10% dialyzed FCS and 2 mM glutamine. This medium is subsequently referred to as LF (low folate). For the cytotoxicity assay, the cells were grown in LF media supplemented with folic acid (3 μM or 300 nM). Treatments were carried out in triplicate, and each experiment performed at least twice. Cell growth was determined by two different methods, Coulter counter Z2 and hemocytometer (FIG. 7). IC50 values were determined at each folic acid concentration added to the medium.
The growth-inhibitory effects of 10 μM EGCG at various folic acid concentrations were determined at two different time intervals. L1210 cells were cultured in a LF medium supplemented with the corresponding folic acid concentration. The data were obtained by using a Coulter counter and hemocytometer and expressed assuming a zero percentage of growth inhibition for untreated control (FIG. 8). Cells were maintained in the corresponding medium with 100 μg/ml of penicillin and streptomycin at 37° C. in a humid 7.5% CO2, […] environment for all the experiments.

Chain of S. maltophilia DHFR (B2FPG1 entry or part of it): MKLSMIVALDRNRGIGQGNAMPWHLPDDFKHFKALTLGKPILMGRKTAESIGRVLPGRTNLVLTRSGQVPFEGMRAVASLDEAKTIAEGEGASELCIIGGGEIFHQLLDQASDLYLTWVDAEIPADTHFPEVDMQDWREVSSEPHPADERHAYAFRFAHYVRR

Compound: O=C(O[C@@H]1Cc2c(O)cc(O)cc2O[C@@H]1c1ccc(O)c(O)c1)c1cc(O)c(O)c(O)c1 [ECG, (−)-epicatechin gallate]
- inhibition of DHFR activity (bovine liver DHFR): potent inhibitor
- k5 (bovine liver DHFR): 0.11 min⁻¹
- k5/k6 (bovine liver DHFR): 7.1 ratio
- k6 (bovine liver DHFR): 0.015 min⁻¹
- Ki (bovine liver DHFR; KI*, equilibrium binding to enzyme-NADPH complex): 6.55 nM
- Ki (bovine liver DHFR; KI, initial binding to enzyme-NADPH complex, pH 7.58, 25° C.): 51.3 nM
- inhibition of rHDHFR activity [1]: potent inhibitors

Compound: NC(=O)C1=CN([C@@H]2O[C@H](COP(=O)(O)OP(=O)(O)OC[C@H]3O[C@@H](n4cnc5c(N)ncnc54)[C@H](OP(=O)(O)O)[C@@H]3O)[C@@H](O)[C@H]2O)C=CC1 [NADPH]
- Km (S. maltophilia DHFR; pH 8.0): 12 µM

Compound: Nc1nc(=O)c2c([nH]1)NCC(CNc1ccc(C(=O)N[C@@H](CCC(=O)O)C(=O)O)cc1)=N2 [DHF, 7,8-dihydrofolate]
- Km (S. maltophilia DHFR; pH 8.0): 1.8 µM

Compound: Oc1cc(O)c2c(c1)O[C@H](c1cc(O)c(O)c(O)c1)[C@H](O)C2 [EGC, (−)-epigallocatechin, reference compound]
- inhibition of DHFR activity (bovine liver DHFR): did not inhibit
- inhibition of rHDHFR activity [1]: did not inhibit

Compound: CN(Cc1cnc2nc(N)nc(N)c2n1)c1ccc(C(=O)N[C@@H](CCC(=O)O)C(=O)O)cc1 [methotrexate]
- p16 methylation pattern (p16): reversal of hypermethylation was observed
- Type of inhibition observed (S. maltophilia DHFR; S. maltophilia DHFR): competitive (slow-
- k1 (S. maltophilia DHFR; S. maltophilia DHFR, calculated by using Eqn. 3): 6.17e+07 M⁻¹ s⁻¹
- rate constant k2 (S. maltophilia DHFR; S. maltophilia DHFR, pH 8.0): 0.0011 s⁻¹
- growth inhibition in HT medium (L1210 cells): greatly attenuated

Compound: COc1cc(Cc2cnc(N)nc2N)cc(OC)c1OC [trimethoprim]
- Ki (S. maltophilia DHFR): 4690 nM
- Type of inhibition observed (S. maltophilia DHFR): competitive (reversible)
- effect of preincubation of the enzyme with inhibitor (S. maltophilia DHFR): did not produce any measurable inhibition
